Assay results reported in publication PMC8322070, “A novel orally active HDAC6 inhibitor T-518 shows a therapeutic potential for Alzheimer’s disease and tauopathy in mice” (Scientific Reports, 2021).

Key:
[1] = target: T1, human HDAC6 (Homo sapiens, UniProt Q9UBN7); test: HDAC enzyme assay (HDAC-Glo I/II), HDAC6; assay type: biochemical
T1 construct: purchased SignalChem Pharmaceutical Inc
T1 sequence (Q9UBN7 1-1215): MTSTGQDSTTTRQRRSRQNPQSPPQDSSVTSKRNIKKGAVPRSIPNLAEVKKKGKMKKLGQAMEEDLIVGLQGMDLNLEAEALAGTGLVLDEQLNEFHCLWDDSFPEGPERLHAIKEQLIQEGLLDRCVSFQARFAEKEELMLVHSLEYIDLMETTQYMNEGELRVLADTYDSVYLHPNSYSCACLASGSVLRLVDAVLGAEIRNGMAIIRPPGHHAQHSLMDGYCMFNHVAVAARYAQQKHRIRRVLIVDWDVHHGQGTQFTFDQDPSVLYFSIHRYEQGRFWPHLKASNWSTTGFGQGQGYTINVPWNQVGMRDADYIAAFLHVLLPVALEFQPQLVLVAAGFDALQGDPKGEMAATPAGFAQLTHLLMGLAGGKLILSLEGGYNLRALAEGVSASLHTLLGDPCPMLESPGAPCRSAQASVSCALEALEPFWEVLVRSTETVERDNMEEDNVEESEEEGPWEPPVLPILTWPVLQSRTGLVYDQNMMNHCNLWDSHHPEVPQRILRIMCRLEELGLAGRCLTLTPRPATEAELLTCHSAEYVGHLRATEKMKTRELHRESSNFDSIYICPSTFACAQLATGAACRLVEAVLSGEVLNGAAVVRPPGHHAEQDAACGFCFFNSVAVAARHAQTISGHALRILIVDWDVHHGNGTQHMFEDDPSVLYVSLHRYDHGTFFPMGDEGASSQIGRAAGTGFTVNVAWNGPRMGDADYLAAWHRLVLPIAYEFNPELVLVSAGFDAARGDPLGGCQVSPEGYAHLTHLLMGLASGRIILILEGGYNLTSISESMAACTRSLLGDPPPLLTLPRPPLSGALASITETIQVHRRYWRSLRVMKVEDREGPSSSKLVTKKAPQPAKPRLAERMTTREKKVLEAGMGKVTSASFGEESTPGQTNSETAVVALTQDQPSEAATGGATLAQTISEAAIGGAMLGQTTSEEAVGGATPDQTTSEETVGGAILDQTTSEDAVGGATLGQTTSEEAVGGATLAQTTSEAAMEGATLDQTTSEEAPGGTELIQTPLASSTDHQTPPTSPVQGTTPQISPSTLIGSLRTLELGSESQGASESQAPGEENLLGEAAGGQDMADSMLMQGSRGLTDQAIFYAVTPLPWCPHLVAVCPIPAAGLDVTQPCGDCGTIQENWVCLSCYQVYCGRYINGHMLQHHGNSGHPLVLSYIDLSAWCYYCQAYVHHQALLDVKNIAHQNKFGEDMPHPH
Procedure: Recombinant HDAC6, HDAC7, HDAC1 were obtained from SignalChem Pharmaceutical Inc. (Richmond, BC, Canada), and recombinant human HDAC4 was prepared at Takeda pharmaceutical company. One μL of T-518 diluted with DMSO was added to 75 μL of assay buffer (24 mM Tris–HCl (pH 7.5), 135 mM NaCl, 0.35 mM KCl, 1 mM MgCl2, 0.01% Tween 20, 0.6 mM GSH) in 384 well plates. Two μL of diluted compounds were added to 384 well plates and 2 μL of recombinant HDAC enzymes was added and then centrifuged at 1000 rpm for 10 s. The final concentrations of each HDAC enzyme were as follows, human HDAC1, 170 pM; human HDAC6, […]; human HDAC4, 68 pM; human HDAC7, 13 pM. After incubation for 60 min at room temperature, 4 μL of HDAC-Glo reagent [HDAC-Glo I/II (Promega) for HDAC6 and HDAC1, HDAC-Glo class IIa (Promega) for HDAC4 and HDAC7] was added to start the reaction. After incubation for 20 min at room temperature, the luminescence was measured by Envision plate reader (PerkinElmer, Waltham, MA, USA). For experiments under the condition of 0 min preincubation, 4 μL of HDAC-Glo reagent was added at first to the 384 well plates including diluted compounds. […] After centrifugation at 1000 rpm for 10 s. and then incubation for 20 min at room temperature, the luminescence was measured by Envision. […] The inhibitory activity of T-518 was expressed as the value of IC50. […]

[2] = Free fraction in a brain (Fu,b); assay type: in vitro ADME; details: data not shown

O=C1c2cc(-c3nnc(C(F)F)o3)cnc2CN1[C@@H]1CCCC[C@H]1NC(=O)C(F)(F)C(F)(F)F [T-518, N-[(1R,2R)-2-{3-[5-(difluoromethyl)-1,3,4-oxadiazol-2-yl]-5-oxo-5H,6H,7H-pyrrolo[3,4-b]pyridin-6-yl}cyclohexyl]-2,2,3,3,3-pentafluoropropanamide]
IC50 ([1]; after 60 min of pre-incubation): 4.6 nM | IC50 ([1]; without pre-incubation): 36 nM | fraction unbound [2]: 0.4
